{"source": "PubChem BioAssay AID504703", "about": "(Southern Research Specialized Biocontainment Screening …, 2011)", "system": "M. tuberculosis H37Rv growth inhibition with meropenem", "experiment": "H37Rv growth inhibition with and without meropenem, dose response, set 2 (AID 504703);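 further: growth ran 7 days at 37 °C then overnight with Alamar Blue before reading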", "key": {"[1]": {"settings": "M. tuberculosis H37Rv growth inhibition, measured here: IC50 without meropenem"}, "[2]": {"settings": "M. tuberculosis H37Rv growth inhibition, measured here: IC90 without meropenem"}, "[3]": {"settings": "measured here: IC90 with meropenem"}}, "note": "Values joined by “and” are separate entries in the source; they are usually repeats but may differ in a detail not shown here. Equal values may be shown once. Active and inactive are the calls of the source. How the calls were made is not given here."}
{"smiles": "Cc1ccc(OC(C)C(=O)Nc2ncccn2)c(C)c1", "note": "(stereo not given)", "values": [{"measurement": "IC50", "setting": "[1]", "result": "> 25", "unit": "µM"}, {"measurement": "IC90", "setting": "[2]", "result": "> 25", "unit": "µM"}]}
{"smiles": "COc1ccc2c(c1)cc(C)n2-c1ccccc1", "values": [{"measurement": "IC50", "setting": "[1]", "result": "> 25", "unit": "µM"}, {"measurement": "IC90", "setting": "[2]", "result": "> 25", "unit": "µM"}, {"measurement": "IC90", "setting": "[3]", "result": "> 25", "unit": "µM"}]}
{"smiles": "CCOc1ccc2nc(NC(=O)COc3ccccc3)sc2c1", "values": [{"measurement": "IC50", "setting": "[1]", "result": "> 25", "unit": "µM"}, {"measurement": "IC90", "setting": "[2]", "result": "> 25", "unit": "µM"}]}
{"smiles": "CCOc1ccc2c(c1)c(C(C)=O)c(C)n2Cc1ccco1", "values": [{"measurement": "IC50", "setting": "[1]", "result": "> 25", "unit": "µM"}, {"measurement": "IC90", "setting": "[2]", "result": "> 25", "unit": "µM"}]}
{"smiles": "COc1ccc2oc(C(=O)Nc3nc4ccccc4[nH]3)c(C)c2c1", "values": [{"measurement": "IC50", "result": "10.5 µM (inactive)"}, {"measurement": "IC90", "setting": "[2]", "result": "> 25", "unit": "µM"}, {"measurement": "IC90", "setting": "[3]", "result": "> 25", "unit": "µM"}]}
{"smiles": "COC(=O)c1c(C)[nH]c2ccc(F)cc12", "values": [{"measurement": "IC50", "setting": "[1]", "result": "> 25", "unit": "µM"}, {"measurement": "IC90", "setting": "[2]", "result": "> 25", "unit": "µM"}]}
{"smiles": "COc1ccc2nc(NC(=O)c3oc4ccccc4c3C)sc2c1", "values": [{"measurement": "IC50", "setting": "[1]", "result": "> 25", "unit": "µM"}, {"measurement": "IC90", "setting": "[2]", "result": "> 25", "unit": "µM"}]}
{"smiles": "Cc1c(OCc2ccc(C(=O)O)cc2)ccc2c(-c3ccccc3)cc(=O)oc12", "values": [{"measurement": "IC50", "setting": "[1]", "result": "> 25", "unit": "µM"}, {"measurement": "IC90", "setting": "[2]", "result": "> 25", "unit": "µM"}, {"measurement": "IC90", "setting": "[3]", "result": "> 25", "unit": "µM"}]}
{"smiles": "Cc1ccc(OCC(=O)Nc2cccc3c(NC(=O)COc4ccc(C)cc4C)cccc23)c(C)c1", "values": [{"measurement": "IC50", "setting": "[1]", "result": "> 25", "unit": "µM"}, {"measurement": "IC90", "setting": "[2]", "result": "> 25", "unit": "µM"}]}
{"smiles": "CCOc1ccc2c(c1)c(CC)c(C)n2-c1ccccc1", "values": [{"measurement": "IC50", "setting": "[1]", "result": "> 25", "unit": "µM"}, {"measurement": "IC90", "setting": "[2]", "result": "> 25", "unit": "µM"}, {"measurement": "IC90", "setting": "[3]", "result": "> 25", "unit": "µM"}]}
{"smiles": "CC(=O)c1c(C)n(-c2ccccc2)c2ccccc12", "values": [{"measurement": "IC50", "result": "11.6 µM (inactive)"}, {"measurement": "IC50", "setting": "[1]", "result": "> 25", "unit": "µM"}, {"measurement": "IC90", "setting": "[2]", "result": "> 25", "unit": "µM"}, {"measurement": "IC90", "setting": "[3]", "result": "> 25", "unit": "µM"}]}
{"smiles": "Cc1ccc(OCC(=O)Nc2ccc(Cl)cc2)c(C)c1", "values": [{"measurement": "IC50", "setting": "[1]", "result": "> 25", "unit": "µM"}, {"measurement": "IC90", "setting": "[2]", "result": "> 25", "unit": "µM"}]}
{"smiles": "Cc1ccc(OCC(=O)Nc2cccc3ccccc23)c(C)c1", "values": [{"measurement": "IC50", "result": "20.5 µM (inactive)"}, {"measurement": "IC50", "setting": "[1]", "result": "> 25", "unit": "µM"}, {"measurement": "IC90", "setting": "[2]", "result": "> 25", "unit": "µM"}, {"measurement": "IC90", "setting": "[3]", "result": "> 25", "unit": "µM"}]}
{"smiles": "N/C(=N\\c1nc2ccccc2o1)NC(=O)COc1ccc2ccccc2c1", "values": [{"measurement": "IC50", "setting": "[1]", "result": "> 25", "unit": "µM"}, {"measurement": "IC90", "setting": "[2]", "result": "> 25", "unit": "µM"}]}
{"smiles": "Cc1cc2cc(F)ccc2n1-c1ccccc1", "values": [{"measurement": "IC50", "setting": "[1]", "result": "> 25", "unit": "µM"}, {"measurement": "IC90", "setting": "[2]", "result": "> 25", "unit": "µM"}]}
{"smiles": "CCOc1ccc2c(c1)c(C(C)=O)c(C)n2-c1ccccc1C", "values": [{"measurement": "IC50", "setting": "[1]", "result": 23.2, "unit": "µM"}, {"measurement": "IC90", "setting": "[2]", "result": "> 25", "unit": "µM"}, {"measurement": "IC90", "setting": "[3]", "result": 12.1, "unit": "µM"}]}
{"smiles": "CCOC(=O)c1c(C)[nH]c2ccccc12", "values": [{"measurement": "IC50", "setting": "[1]", "result": "> 25", "unit": "µM"}, {"measurement": "IC90", "setting": "[2]", "result": "> 25", "unit": "µM"}]}
{"smiles": "O=C(CCS(=O)(=O)c1ccc(F)cc1)Nc1nnc(-c2cccs2)o1", "values": [{"measurement": "IC50", "result": "> 18.8 µM (inactive) and 22.4 µM (inactive)"}, {"measurement": "IC50", "setting": "[1]", "result": "> 25", "unit": "µM"}, {"measurement": "IC90", "setting": "[2]", "result": "> 25", "unit": "µM"}, {"measurement": "IC90", "setting": "[3]", "result": "> 25", "unit": "µM"}]}
{"smiles": "CCOc1ccc2c(c1)c(C(C)=O)c(C)n2-c1cccc(Cl)c1", "values": [{"measurement": "IC50", "result": "10.5 µM (inactive)"}, {"measurement": "IC50", "setting": "[1]", "result": "> 25", "unit": "µM"}, {"measurement": "IC90", "setting": "[2]", "result": "> 25", "unit": "µM"}, {"measurement": "IC90", "setting": "[3]", "result": "> 25", "unit": "µM"}]}
{"smiles": "CCC(CC)c1nnc(NC(=O)c2ccc(N3CCCCC3)c([N+](=O)[O-])c2)s1", "values": [{"measurement": "IC50", "setting": "[1]", "result": "> 25", "unit": "µM"}, {"measurement": "IC90", "setting": "[2]", "result": "> 25", "unit": "µM"}]}
{"smiles": "CCOc1ccc2[nH]c(C)cc2c1", "values": [{"measurement": "IC50", "setting": "[1]", "result": "> 25", "unit": "µM"}, {"measurement": "IC90", "setting": "[2]", "result": "> 25", "unit": "µM"}]}
{"smiles": "CCOc1ccc2nc(NC(=O)c3cnccn3)sc2c1", "values": [{"measurement": "IC50", "setting": "[1]", "result": "> 25", "unit": "µM"}, {"measurement": "IC90", "setting": "[2]", "result": "> 25", "unit": "µM"}]}
{"smiles": "COc1ccc2nc(NC(=O)COc3ccc(Cl)cc3)sc2c1", "values": [{"measurement": "IC50", "setting": "[1]", "result": "> 25", "unit": "µM"}, {"measurement": "IC90", "setting": "[2]", "result": "> 25", "unit": "µM"}]}
{"smiles": "Cc1cc2cc(F)ccc2[nH]1", "values": [{"measurement": "IC50", "setting": "[1]", "result": "> 25", "unit": "µM"}, {"measurement": "IC90", "setting": "[2]", "result": "> 25", "unit": "µM"}]}
{"smiles": "O=C(CC12CC3CC(CC(C3)C1)C2)NCc1ccc(F)cc1", "values": [{"measurement": "IC50", "setting": "[1]", "result": "> 25", "unit": "µM"}, {"measurement": "IC90", "setting": "[2]", "result": "> 25", "unit": "µM"}]}
{"smiles": "N/C(=N\\c1nc2ccccc2o1)NC(=O)c1ccccc1F", "values": [{"measurement": "IC50", "setting": "[1]", "result": "> 25", "unit": "µM"}, {"measurement": "IC90", "setting": "[2]", "result": "> 25", "unit": "µM"}]}
{"smiles": "CCOc1ccc2nc(NC(=O)COc3ccc(Cl)c(C)c3)sc2c1", "values": [{"measurement": "IC50", "setting": "[1]", "result": "> 25", "unit": "µM"}, {"measurement": "IC90", "setting": "[2]", "result": "> 25", "unit": "µM"}]}
{"smiles": "O=C(Nc1ccccc1)Nc1csc2ccccc12", "values": [{"measurement": "IC50", "setting": "[1]", "result": "5.5 µM and 1.82 µM"}, {"measurement": "IC90", "setting": "[2]", "result": "> 25", "unit": "µM"}, {"measurement": "IC90", "setting": "[3]", "result": "> 25", "unit": "µM"}]}
{"smiles": "COC(=O)c1c(C)[nH]c2ccc(Cl)cc12", "values": [{"measurement": "IC50", "setting": "[1]", "result": "> 25", "unit": "µM"}, {"measurement": "IC90", "setting": "[2]", "result": "> 25", "unit": "µM"}]}
{"smiles": "COc1ccc(Cl)cc1C(=O)Nc1nc2ccccc2[nH]1", "values": [{"measurement": "IC50", "result": "16.2 µM (inactive)"}, {"measurement": "IC50", "setting": "[1]", "result": "> 25", "unit": "µM"}, {"measurement": "IC90", "setting": "[2]", "result": "> 25", "unit": "µM"}, {"measurement": "IC90", "setting": "[3]", "result": "> 25", "unit": "µM"}]}
{"smiles": "CC(C)Cn1c2c(c(O)c(C(=O)Nc3nccs3)c1=O)CCCC2", "values": [{"measurement": "IC50", "setting": "[1]", "result": "> 25", "unit": "µM"}, {"measurement": "IC90", "setting": "[2]", "result": "> 25", "unit": "µM"}]}
{"smiles": "COc1cccc(NC(=O)C2CC2)c1", "values": [{"measurement": "IC50", "setting": "[1]", "result": "> 25", "unit": "µM"}, {"measurement": "IC90", "setting": "[2]", "result": "> 25", "unit": "µM"}, {"measurement": "IC90", "setting": "[3]", "result": "> 25", "unit": "µM"}]}
{"smiles": "Cc1ccccc1OCC(=O)Nc1nnn(C)n1", "values": [{"measurement": "IC50", "setting": "[1]", "result": "> 25", "unit": "µM"}, {"measurement": "IC90", "setting": "[2]", "result": "> 25", "unit": "µM"}]}
{"smiles": "Cc1cccc(C)c1OCC(=O)Nc1nc2ccc(Cl)cc2s1", "values": [{"measurement": "IC50", "setting": "[1]", "result": "> 25", "unit": "µM"}, {"measurement": "IC90", "setting": "[2]", "result": "> 25", "unit": "µM"}]}
